Assay results: the RepoRT retention time repository (doi:10.1038/s41586-021-03707-9)

assay: RP, Waters ACQUITY UPLC HSS C18, 100 × 2.1 mm, 1.7 µm, 40 °C, 0.35 mL/min, estimated dead time 0.63 min; A: water + 0.1% formic acid; B: methanol + 0.1% formic acid; gradient (min/%B) 0/0.5 4/70 4.5/98 5.4/98; details: stereoisomer not certain

Row | LC retention time | Compound
1 | 4.32 min | CCOC(=O)CC(=O)OCC
2 | 4.56 min | O=C(O)CCCCCCCC(=O)O
3 | 3.23 min | O=C(O)Cc1ccc(O)cc1
4 | 3.46 min | CC(CCC(=O)O)CC(=O)O (configuration not stated)
5 | 2.89 min | CC(=O)NC(Cc1ccc(O)cc1)C(=O)O (configuration not stated)
6 | 3.07 min | CC(C)CC(=O)NCC(=O)O
7 | 0.768 min | NCC(=O)CCC(=O)O
8 | 1.84 min | O=C(O)C=C(CC(=O)O)C(=O)O
9 | 1.23 min | CC(=O)NC(CC(=O)O)C(=O)O (configuration not stated)
10 | 3.46 min | O=C(O)CCCCCC(=O)O
11 | 0.782 min | O=C(O)CCO
12 | 3.35 min | CC(C)C(O)(CC(=O)O)C(=O)O (configuration not stated)
13 | 2.36 min | CCCC(=O)NCC(=O)O
14 | 2.58 min | CC(CC(=O)O)C(=O)O (configuration not stated)
15 | 1.92 min | O=C(O)CC(O)C(=O)O (configuration not stated)
16 | 0.907 min | NC(CCS)C(=O)O (configuration not stated)
17 | 1.36 min | NC(CCOC(=O)CCC(=O)O)C(=O)O (configuration not stated)
18 | 2.83 min | O=C(O)CCCCC(=O)O
19 | 3.23 min | O=C(O)CNC(=O)c1ccccc1

Row | LC retention time | Compound
20 | 4.96 min | O=C(O)CCCCCCCCC(=O)O
21 | 1.9 min | CC(O)(CC(=O)O)CC(=O)O
22 | 0.768 min | NC(CS(=O)O)C(=O)O (configuration not stated)
23 | 1.87 min | CC(C(=O)O)C(=O)O
24 | 2.67 min | O=C(O)CC=CCC(=O)O
25 | 1.73 min | O=C(O)CCC(=O)O
26 | 0.919 min | O=CNCC(=O)O
27 | 1.89 min | O=C(O)CCCC(O)C(=O)O (configuration not stated)
28 | 0.773 min | NC(CS(=O)(=O)O)C(=O)O (configuration not stated)
29 | 4.56 min | CCOC(=O)C(=O)C(C)C(=O)OCC (configuration not stated)
30 | 0.802 min | NC(N)=NC(CC(=O)O)C(=O)O (configuration not stated)
31 | 4.61 min | CCOC(=O)CCC(=O)OCC
32 | 0.759 min | NC(COP(=O)(O)O)C(=O)O (configuration not stated)
33 | 3.3 min | CC(=O)CC(=O)CCC(=O)O
34 | 3.02 min | CC(CC(=O)O)CC(=O)O
35 | 3.42 min | O=C(O)CCCCC1SCC2NC(=O)NC21 (configuration not stated)
36 | 3.07 min | CC(=CC(=O)O)CC(=O)O
37 | 3.37 min | NC(CCC(=O)NC(CS)C(=O)NCC(=O)O)C(=O)O (configuration not stated)

Further lines, the compound ahead of its results:

Row | Compound | LC retention time
38 | O=C(C=Cc1ccc(O)c(O)c1)OC1CC(O)(C(=O)O)CC(O)C1O (configuration not stated) | 3.03 min
39 | Nc1ncnc2c1ncn2C1OC(CSCCC(N)C(=O)O)C(O)C1O (configuration not stated) | 1.71 min
40 | COC(=O)C1=C(C)NC(C)=C(C(=O)OCCN(C)Cc2ccccc2)C1c1cccc([N+](=O)[O-])c1 (configuration not stated) | 4.6 min
41 | COc1ccccc1C=CC=O | 5.02 min
42 | COC(=O)c1cccnc1 | 3.23 min
43 | Nc1cccc(C(=O)O)c1O | 1.54 min
44 | CN(C)CCOC(C)(c1ccccc1)c1ccccn1 (configuration not stated) | 3.14 min
45 | O=C(O)C=Cc1cccc(O)c1 | 4.38 min
46 | C[N+](C)(C)CCOP(=O)([O-])OP(=O)(O)OCC1OC(n2ccc(N)nc2=O)C(O)C1O (configuration not stated) | 0.822 min
47 | CC1NCCc2cc(O)c(O)cc21 (configuration not stated) | 1.61 min
48 | Cc1ncc(C[n+]2csc(CCOP(=O)(O)O)c2C)c(N)n1 | 0.762 min
49 | OCC(O)C(O)C(OC1OC(CO)C(O)C(O)C1O)C(O)CO (configuration not stated) | 4.47 min
50 | O=S(=O)(O)c1ccc(O)cc1 | 1.02 min
51 | OC(CCN1CCCCC1)(c1ccccc1)C1CCCCC1 (configuration not stated) | 4.77 min
52 | O=P(O)(O)OCC1OC(O)C(O)C1O (configuration not stated) | 0.778 min
53 | CN(C)CCOC(c1ccccc1)c1ccccc1 | 4.37 min
54 | CCOC(=O)c1cncn1C(C)c1ccccc1 (configuration not stated) | 5.14 min
55 | NCCc1ccc(O)c(O)c1 | 1.35 min
56 | CCc1occc(=O)c1O | 3.63 min
57 | COc1ccc(C=O)cc1 | 0.897 min
58 | CC12CCC(=O)C=C1CCC1C2C(O)CC2(C)C(C(=O)CO)CCC12 (configuration not stated) | 5.31 min
59 | Nc1ccn(C2CC(O)C(COP(=O)(O)O)O2)c(=O)n1 (configuration not stated) | 1.1 min

Row | Compound | LC retention time
60 | CN(C)CCc1ccccc1 | 2.61 min
61 | Cn1c(=O)[nH]c2[nH]c(=O)[nH]c2c1=O | 2.1 min
62 | O=C(O)C=Cc1cnc[nH]1 | 1.16 min
63 | O=C(O)C1(O)CC(O)C(O)C(O)C1 (configuration not stated) | 0.867 min
64 | O=C(O)C=Cc1ccccc1 | 4.92 min
65 | CC(=O)NC1C(O)CC(O)(C(=O)O)OC1C(O)C(O)CO (configuration not stated) | 0.846 min
66 | CSc1ccc2c(c1)N(CCC1CCCCN1C)c1ccccc1S2 (configuration not stated) | 5.19 min
67 | Nc1ccc(O)cc1 | 0.829 min
68 | O=C(O)c1ccccc1O | 2.19 min
69 | O=P(O)(O)OCC1OC(O)C(O)C(O)C1O (configuration not stated) | 0.783 min
70 | CNCCc1ccccc1 | 2.61 min
71 | O=P(O)(O)OC(CO)CO | 0.815 min
72 | OCC1OC(OC2C(CO)OC(O)C(O)C2O)C(O)C(O)C1O (configuration not stated) | 0.801 min
73 | NCC(O)c1ccc(O)c(O)c1 (configuration not stated) | 0.806 min
74 | O=C(O)c1cc(O)c(O)c(O)c1 | 1.88 min
75 | CN(C)C(=N)N=C(N)N | 0.844 min
76 | CN1CC(=O)NC1=O | 1.62 min
77 | O=C(O)C(O)Cc1ccccc1 (configuration not stated) | 3.7 min
78 | O=C(O)c1c[nH]c2ccccc12 | 4.08 min
79 | Oc1c[nH]c2ccccc12 | 3.85 min
80 | COC(=O)C1=C(C)NC(C)=C(C(=O)OC)C1c1ccccc1[N+](=O)[O-] | 5.28 min
81 | NC(=O)c1ncn(C2OC(COP(=O)(O)O)C(O)C2O)c1N (configuration not stated) | 1.11 min

Row | Compound | LC retention time
82 | Nc1ccn(C2OC(CO)C(OP(=O)(O)O)C2O)c(=O)n1 (configuration not stated) | 0.912 min
83 | O=C1CCNC(=O)N1 | 1.16 min
84 | COc1cc(C=CC(=O)O)ccc1O | 3.87 min
85 | O=Cc1ccc(O)c(O)c1 | 2.91 min
86 | CN(C)CCC=C1c2ccccc2CCc2ccccc21 | 4.85 min
87 | Cn1cnc2c1c(=O)[nH]c(=O)n2C | 2.5 min
88 | CC(=O)OCC1OC(OC(C)=O)C(OC(C)=O)C(OC(C)=O)C1OC(C)=O (configuration not stated) | 4.5 min
89 | O=C(O)C=Cc1c[nH]c2ccccc12 | 4.59 min
90 | COc1ccc(C2Sc3ccccc3N(CCN(C)C)C(=O)C2OC(C)=O)cc1 (configuration not stated) | 4.53 min
91 | NC(CS)C(=O)O (configuration not stated) | 0.798 min
92 | NC12CC3CC(CC(C3)C1)C2 | 3.49 min
93 | CN(C)CCC=C1c2ccccc2COc2ccccc21 | 4.44 min
94 | CC12CC3CC(C)(C1)CC(N)(C3)C2 | 4.42 min
95 | CCC1OC(=O)C(C)C(OC2CC(C)(OC)C(O)C(C)O2)C(C)C(OC2OC(C)CC(N(C)C)C2O)C(C)(O)CC(C)C(=O)C(C)C(O)C1(C)O (configuration not stated) | 4.82 min
96 | CC1OC(n2cnc3c(N)ncnc32)C(O)C1O (configuration not stated) | 2.25 min
97 | CNCCC(Oc1ccccc1C)c1ccccc1 (configuration not stated) | 4.72 min
98 | Cc1cc2nc3[nH]c(=O)[nH]c(=O)c3nc2cc1C | 4.5 min
99 | Nc1nc2c(ncn2CCC(CO)CO)c(=O)[nH]1 | 1.88 min
100 | CCC1C(=O)OCC1Cc1cncn1C (configuration not stated) | 2.04 min
101 | O=C(O)c1c[nH]c(=O)[nH]c1=O | 1.51 min
102 | COc1ccc(CCN(C)CCCC(C#N)(c2ccc(OC)c(OC)c2)C(C)C)cc1OC (configuration not stated) | 4.54 min
